Data taken from ChEMBL document CHEMBL2028040, “Malaria Box”.

Assays:
Plasmodium falciparum = test: MMV: Inhibition of Plasmodium falciparum 3D7 at 5uM compound concentration.; format: functional
Trypanosoma cruzi = test: MMV: Inhibition of Trypanosoma cruzi (Tulahuen C4 LacZ) (Chagas in vitro).; format: functional, organism-based
[1] = system: Trypanosoma brucei brucei; test: MMV: Inhibition of Trypanosoma brucei brucei (Squib 427) (HAT in vitro).; format: functional, organism-based
[2] = system: Trypanosoma brucei rhodesiense; test: MMV: Inhibition of Trypanosoma brucei rhodesiense (STIB 900) (HAT in vitro).; format: functional, organism-based
Leishmania infantum = test: MMV: Inhibition of Leishmania infantum (MHOM/MA/BE/67) in vitro.; format: functional, organism-based
[3] = MMV: Cytotoxicity against human fibroblasts (MRC-5) cells.; details: MRC-5 cells (human fibroblasts)

Compound	IC50 (Trypanosoma cruzi) [µM]	IC50 [1] [µM]	IC50 [2] [µM]	IC50 (Leishmania infantum) [µM]	inhibition at 5 µM (Plasmodium falciparum) [%]	IC50 [3] [µM]
O=c1c2c([nH]c3ccccc13)CCCC2	> 32	> 32	> 32	> 32	82	> 32
Cc1ccc(-c2nc3ccccc3o2)cc1NCc1cc(Cc2ccccc2)ccc1O	> 32	> 32	> 32	16.2	64	> 32
COc1ccccc1CNC(=O)C1c2ccccc2C(=O)N(CC(C)C)C1c1cccs1 (stereo not drawn)	> 32	> 32	19.7	> 32	97	> 32
Cn1c(C(=O)c2cccc3ccccc23)nc2ccccc21	> 32	> 32	29.2	16	89	> 32
CCOC(=O)c1c[nH]c2c(CC)cccc2c1=O	> 32	> 32	> 32	> 32	87	> 32
CCCCOc1ccc(C(=O)Nc2cc(C)on2)cc1	> 32	> 32	> 32	> 32	73	> 32
CCOc1ccccc1NC(=O)CN1CCN(C(=O)c2ccco2)CC1	> 32	> 32	> 32	> 32	83	> 32
COCCNC(=O)c1ccc(OC2CCN(Cc3ccc(F)c(F)c3)CC2)c(Cl)c1	> 32	> 32	16.1	> 32	91	> 32
CCCC(c1nnnn1C1CCCCC1)N1CCN(C(=O)c2ccco2)CC1 (stereo not drawn)	> 32	> 32	> 32	> 32	82	> 32
FC(F)(F)c1ccc(Nc2nnnc3ccccc23)cc1	> 32	> 32	> 32	> 32	77	> 32
CCN(CC)CCCNc1ccnc2cc3ccccc3cc12	> 32	16.5	16.2	> 32	90	> 32
COc1cc2cc(C(=O)Nc3ccccc3)c(N)nc2cc1OC	> 32	> 32	> 32	> 32		> 32
CCN1CCN(c2c(C(=O)c3ccccc3)cnc3cc(OC)c(OC)cc23)CC1	> 32	> 32	17.9	> 32	59	> 32
COCCn1c(C)nc2ccccc2c1=O	> 32	> 32	> 32	> 32	59	> 32
CCCc1c(C)nc2ccccc2c1O	> 32	> 32	> 32	> 32	88	> 32
CC(C)(C)c1ccc(C(=O)Nc2c3c(nn2-c2cccc(Cl)c2)CSC3)cc1	> 32	16.1	> 32	> 32	93	> 32
O=C(Nc1ccc(-c2nc3cc(NC(=O)c4ccc(Cl)cc4)ccc3[nH]2)cc1)c1ccc(Cl)cc1	> 32	> 32	> 32	> 32		> 32
O=C(CSc1ccc2nnc(-c3cccc(F)c3)n2n1)Nc1ccc2c(c1)OCO2	> 32	> 32	> 32	> 32	92	> 32
O=C(Nc1ccsc1C(=O)NC1CCCCC1)c1ccc(F)cc1	> 32	> 32	> 32	> 32	86	> 32
CCOc1ccc(CCNC(=O)c2cccs2)cc1OCC	> 32	> 32	> 32	> 32	95	> 32
Oc1ccc2ccccc2c1CNc1nc2ccccc2[nH]1	> 32	16.1	8.65	> 32	83	> 32
CCOc1cccc(C(=O)Nc2ccc(-c3nc4ccccc4[nH]3)cc2)c1	> 32	> 32	> 32	16.2		> 32
CC(=O)c1ccc(NC(=O)CSc2nc(-c3ccccc3Cl)ns2)cc1	> 32	> 32	> 32	> 32		> 32

Further lines, with some results ahead:

IC50 (Trypanosoma cruzi) [µM]	IC50 [1] [µM]	IC50 [2] [µM]	IC50 (Leishmania infantum) [µM]	Compound	inhibition at 5 µM (Plasmodium falciparum) [%]	IC50 [3] [µM]
> 32	> 32	> 32	> 32	COc1ccc(-c2nonc2NC(=O)c2cccc(C)c2)cc1OC	95	> 32
> 32	> 32	> 32	> 32	O=C(Nc1ccc(Cl)cc1)N1CCN(c2ccc3nncn3n2)CC1	62	> 32
> 32	11	15.4	> 32	Cc1c(C)n(Cc2ccc(F)cc2)c2ccc(C(=O)NCc3ccco3)cc12	52	> 32
> 32	> 32	> 32	> 32	O=C(c1ccccc1F)N(Cc1ccc(Cl)cc1)c1ccccn1	59	> 32
4.78	16.2	12.5	4.32	CCCCCCC(O)(c1ccc(F)cc1)C(CN1CCOCC1)c1ccccc1 (stereo not drawn)	93	> 32
4.17	16	16.1	4.06	O=c1nc(C=Cc2ccc(Br)cc2)oc2ccccc12	94	4
8.56	0.271	0.25	4	CCN(CC)CCCNc1nc(-c2ccc(Cl)cc2)nc2ccccc12	92	15.8
> 32	> 32	> 32	> 32	COc1ccc(-c2nonc2NC(=O)c2cccc(Cl)c2)cc1OC		> 32
> 32	> 32	16.3	> 32	CCCCN(CCCC)S(=O)(=O)c1ccc(NC(=O)c2ccco2)cc1	78	> 32
> 32	13.7	13.5	> 32	O=C(Nc1ccccc1O)c1ccc(-c2ccc(Cl)cc2Cl)o1	97	> 32
0.343	0.657	0.7	16.2	O=C(Nc1cccc(C(F)(F)F)c1)c1cc(Cl)ccc1O	93	0.241
13	14.9	4.95	10.1	CCOC(=O)c1cnc2ccc(OC)cc2c1NCc1ccccc1	87	> 32
12.2	12.4	4.12	4.32	OC1CCCCC1C1(NC(=S)Nc2ccccc2)CCCCC1 (stereo not drawn)	59	> 32
6.59	4.78	3.22	6.35	CCN1CCN(c2cc(C)c3cc(NC(=O)c4ccc(OC)c(OC)c4)ccc3n2)CC1		5.46
16.3	> 32	30.3	> 32	O=C1CC(O)(C(F)(F)C(F)(F)F)Oc2ccccc21 (stereo not drawn)	95	18.1
15	16.5	5	16	COc1ccc(-c2cn3c(C(=O)Nc4ccccc4Cl)c(-c4ccccc4)c4c3n2CCCC4)cc1	80	> 32
4.13	32	3.82	> 32	CCOC(=O)c1cnc2ccc(OC)cc2c1Nc1ccc(N2CCN(C)CC2)cc1		13.9
13.7	14.3	0.679	16.2	CCN(CC)c1cc(C)c2cc(NC(=O)c3cccc(OC)c3)ccc2n1		15.3
5.21	4	3.09	10.2	O=C(Nc1ccc(Br)cc1)Nc1cccc(Cl)c1	94	> 32
19.3	> 32	22.8	> 32	Cc1ccc(C)c(-c2csc(Nc3ccc(C)c(C)c3)n2)c1	94	> 32
17	13.3	3.51	10.1	CN(C)c1ccc(N=Cc2ccc(N3CCOCC3)cc2)cc1	96	> 32
15.9	3.33	0.971	13.6	Cc1ccc(CN2CCC(C(=O)Nc3ccc(-c4cc5ccccc5[nH]4)cc3)CC2)o1	77	15.7
16	3.72	3.94	16.1	Cc1ccc(OCCCCCCNCCO)c(C)c1	49	> 32
14.6	16.2	10.9	16.2	COc1ccc(C(=O)Nc2ccc3nc(N4CCCCC4)cc(C)c3c2)cc1OC		16.4
